Measured values from patent publication US20170050957A1, “4-AMINO-6-(HETEROCYCLIC)PICOLINATES AND 6-AMINO-2-(HETEROCYCLIC)PYRIMIDINE-4-CARBOXYLATES AND THEIR USE AS HERBICIDES” (Dow AgroSciences LLC, priority 2013, published 2017).
Like-named read-outs stand apart in the source and are kept apart here.

Columns and labels:
[1] = tested on: Key Broadleaf Weed and Crop Species; experiment: Post-emergent Test II herbicidal activity (Table 15); type: in vivo; conditions: post-emergence, 336 h, 14 d; for pest or weed control at 35 g/ha: 35 g ai/ha; for pest or weed control at 70 g/ha: 70 g ai/ha; for pest or weed control at 140 g/ha: 140 g ai/ha
Method in brief: (§1)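 Visual injury rating (0 = none, 100 = complete kill) taken 14 d after treatment, relative to untreated plants. Compounds in acetone/DMSO with crop oil concentrate and Triton X-155 were track-sprayed at 187 L/ha onto seedlings at the first-second true leaf stage.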

[2] = tested on: Key Grass and Sedge Weeds as well as Grass Crops; experiment: Post-emergent Test II herbicidal activity (Table 16); type: in vivo; conditions: post-emergence, 336 h, 14 days after application; for pest or weed control at 35 g/ha: 35 g ai/ha; for pest or weed control at 70 g/ha: 70 g ai/ha; for pest or weed control at 140 g/ha: 140 g ai/ha
Method in brief: as §1

[3] = Abutilon theophrasti, velvetleaf (Abutilon theophrasti), read-out: Visual Growth Reduction (%) 14 Days After Application, ABUTH
[4] = Amaranthus retroflexus, redroot pigweed (Amaranthus retroflexus), read-out: Visual Growth Reduction (%) 14 Days After Application, AMARE
[5] = Brassica napus, oilseed rape, canola (Brassica napus), read-out: Visual Growth Reduction (%) 14 Days After Application, BRSNN
[6] = Chenopodium album, lambsquarters (Chenopodium album), read-out: Visual Growth Reduction (%) 14 Days After Application, CHEAL
[7] = Euphorbia heterophylla, wild poinsettia (Euphorbia heterophylla), read-out: Visual Growth Reduction (%) 14 Days After Application, EPHHL
[8] = Helianthus annuus, sunflower (Helianthus annuus), read-out: Visual Growth Reduction (%) 14 Days After Application, HELAN
[9] = Cyperus esculentus, yellow nutsedge (Cyperus esculentus), read-out: Visual Growth Reduction (%) 14 Days After Application CYPES
[10] = Echinochloa crus-galli, barnyardgrass (Echinochloa crus-galli), read-out: Visual Growth Reduction (%) 14 Days After Application ECHCG
[11] = Oryza sativa, rice (Oryza sativa), read-out: Visual Growth Reduction (%) 14 Days After Application ORYSA
[12] = Setaria faberi, giant foxtail (Setaria faberi), read-out: Visual Growth Reduction (%) 14 Days After Application SETFA
[13] = Triticum aestivum, wheat, spring (Triticum aestivum), read-out: Visual Growth Reduction (%) 14 Days After Application TRZAS
[14] = Zea mays, maize, corn (Zea mays), read-out: Visual Growth Reduction (%) 14 Days After Application ZEAMX

COC(=O)c1nc(-c2ccc3[nH]ncc3c2)c(F)c(N)c1Cl [Compound 4.01]
pest or weed control at 35 g/ha [1, 3]: 0 to 29%
pest or weed control at 70 g/ha [1, 3]: 0 to 29%
pest or weed control at 140 g/ha [1, 3]: 0 to 29%
pest or weed control at 35 g/ha [1, 4]: 0 to 29%
pest or weed control at 70 g/ha [1, 4]: 45 to 59%
pest or weed control at 140 g/ha [1, 4]: 60 to 74%
pest or weed control at 35 g/ha [1, 5]: 0 to 29%
pest or weed control at 70 g/ha [1, 5]: 0 to 29%
pest or weed control at 140 g/ha [1, 5]: 0 to 29%
pest or weed control at 35 g/ha [1, 6]: 0 to 29%
pest or weed control at 70 g/ha [1, 6]: 60 to 74%
pest or weed control at 140 g/ha [1, 6]: 60 to 74%
pest or weed control at 35 g/ha [1, 7]: 0 to 29%
pest or weed control at 70 g/ha [1, 7]: 0 to 29%
pest or weed control at 140 g/ha [1, 7]: 0 to 29%
pest or weed control at 35 g/ha [1, 8]: 0 to 29%
pest or weed control at 70 g/ha [1, 8]: 0 to 29%
pest or weed control at 140 g/ha [1, 8]: 0 to 29%
pest or weed control at 35 g/ha [2, 9]: 0 to 29%
pest or weed control at 70 g/ha [2, 9]: 0 to 29%
pest or weed control at 140 g/ha [2, 9]: 0 to 29%
pest or weed control at 35 g/ha [2, 10]: 0 to 29%
pest or weed control at 70 g/ha [2, 10]: 0 to 29%
pest or weed control at 140 g/ha [2, 10]: 0 to 29%
pest or weed control at 35 g/ha [2, 11]: 0 to 29%
pest or weed control at 70 g/ha [2, 11]: 0 to 29%
pest or weed control at 140 g/ha [2, 11]: 0 to 29%
pest or weed control at 35 g/ha [2, 12]: 0 to 29%
pest or weed control at 70 g/ha [2, 12]: 0 to 29%
pest or weed control at 140 g/ha [2, 12]: 0 to 29%
pest or weed control at 35 g/ha [2, 13]: 0 to 29%
pest or weed control at 70 g/ha [2, 13]: 0 to 29%
pest or weed control at 140 g/ha [2, 13]: 0 to 29%
pest or weed control at 35 g/ha [2, 14]: 0 to 29%
pest or weed control at 70 g/ha [2, 14]: 0 to 29%
pest or weed control at 140 g/ha [2, 14]: 0 to 29%
melting point: 188 to 190 °C
